The values below come from ChEMBL document CHEMBL4619823, “Allosteric Modulation of Protein Arginine Methyltransferase 5 (PRMT5)” (ACS Med Chem Lett, 2020).

For one assay, the target named is Protein arginine N-methyltransferase 5 (Homo sapiens, UniProt O14744). The experiment in a line: Inhibition of PRMT5 in human MCF7 cells assessed as reduction in symmetrically dimethylated nuclear protein level incubated for 3 days by Alexafluor-488 conjugate anti-rabbit antibody/DAPI staining based IN cell analyzer method.
Protein arginine N-methyltransferase 5, sequence (O14744 whole entry): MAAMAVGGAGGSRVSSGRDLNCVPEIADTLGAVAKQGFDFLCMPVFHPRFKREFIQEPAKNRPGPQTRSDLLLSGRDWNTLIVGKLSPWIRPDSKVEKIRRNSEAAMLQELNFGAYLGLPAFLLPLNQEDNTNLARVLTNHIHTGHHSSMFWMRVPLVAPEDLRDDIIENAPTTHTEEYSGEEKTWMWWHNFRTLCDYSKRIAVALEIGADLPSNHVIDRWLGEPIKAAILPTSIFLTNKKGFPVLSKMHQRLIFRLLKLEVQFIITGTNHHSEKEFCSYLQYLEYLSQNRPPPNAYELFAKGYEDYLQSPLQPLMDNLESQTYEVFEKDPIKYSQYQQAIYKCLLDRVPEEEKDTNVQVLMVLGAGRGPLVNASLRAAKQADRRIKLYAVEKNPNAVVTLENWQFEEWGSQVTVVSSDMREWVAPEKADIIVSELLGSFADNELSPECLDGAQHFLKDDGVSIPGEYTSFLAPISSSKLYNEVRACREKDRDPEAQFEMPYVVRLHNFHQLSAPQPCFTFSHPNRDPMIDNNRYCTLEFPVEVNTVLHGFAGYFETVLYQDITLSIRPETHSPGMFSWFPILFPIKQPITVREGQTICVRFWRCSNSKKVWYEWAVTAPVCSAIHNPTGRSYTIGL
For orientation: EC50 means the concentration giving half of the maximal effect. Consider `COc1ccc([C@@]2(C34CC5CC(CC(C5)C3)C4)N=C(N)N(C)C2=O)cc1`, for which the EC50 stood at 4600 nM.

For another assay, the target named is PRMT5/MEP50 complex (Homo sapiens, UniProt O14744). The experiment in a line: Inhibition of recombinant Avi-tagged PRMT5 (2 to 637)/ His-tagged MEP50 (2 to 342) (unknown origin) expressed in baculovirus infected Sf21 cells using biotinylated H4R3 (Me1) peptide as substrate in presence of SAM preincubated for 60 mins followed by substrate addition after 150 mins by biochemical methylation assay.
PRMT5/MEP50 complex, sequence (O14744 whole entry): as above
PRMT5/MEP50 complex, sequence (Q9BQA1 whole entry, further chain): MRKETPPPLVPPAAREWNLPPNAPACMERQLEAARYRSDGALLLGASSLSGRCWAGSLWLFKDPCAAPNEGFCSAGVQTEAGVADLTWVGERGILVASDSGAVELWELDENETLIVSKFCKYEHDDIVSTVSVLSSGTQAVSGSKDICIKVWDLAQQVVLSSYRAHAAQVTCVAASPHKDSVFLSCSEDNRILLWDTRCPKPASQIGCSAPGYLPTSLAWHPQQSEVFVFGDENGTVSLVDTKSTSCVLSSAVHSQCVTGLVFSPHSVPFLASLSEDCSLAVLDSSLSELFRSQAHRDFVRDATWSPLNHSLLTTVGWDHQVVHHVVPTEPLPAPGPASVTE
For `COc1ccc([C@@]2(C34CCC(CC3)CC4)N=C(N)N(C)C2=O)cc1`, the EC50 is 240 nM.
For `COc1ccc([C@]2(C34CC5CC(CC(C5)C3)C4)N=C(N)N(C)C2=O)cc1`, the EC50 is 3100 nM.
With `CN1C(=O)[C@](c2ccccc2)(C23CC4CC(CC(C4)C2)C3)N=C1N`, the EC50 was 12 nM.
Same read-out and setting: with `COc1ccc([C@@]2(C34CC5CC(CC(C5)C3)C4)N=C(N)N(C)C2=O)cc1` the figure was 16 nM; with `CCC1CCN2C(=O)[C@](c3ccccc3)(C34CC5CC(CC(C5)C3)C4)N=C2N1` (stereo partly drawn), 68 nM; with `CN1C(=O)[C@](c2ccc3ccccc3c2)(C23CC4CC(CC(C4)C2)C3)N=C1N`, 90 nM.
As to `CC1CCN2C(=O)[C@](c3ccccc3)(C34CC5CC(CC(C5)C3)C4)N=C2N1` (stereo partly drawn), the 50% effective concentration (EC50) was determined as 66 nM.
Same read-out and setting: the same measure for `COc1ccc([C@@]2(C34CC5CC(CC(O)(C5)C3)C4)N=C(N)N(C)C2=O)cc1`: 220 nM; for `CN1C(=O)[C@@](CCC2CCCCC2)(c2ccccc2)N=C1N`: 50 nM; for `COc1ccc(C2(C34CC5CC(O)(CC(F)(C5)C3)C4)N=C(N)N(C)C2=O)cc1` (stereo not drawn): 620 nM.
For `COc1cccc([C@@]2(C34CC5CC(CC(C5)C3)C4)N=C(N)N(C)C2=O)c1`, the EC50 came to 56 nM.

Another assay concerns the target PRMT5/MEP50 complex (Homo sapiens) (UniProt O14744+Q9BQA1). The experiment in a line: Binding affinity to human biotinylated PRMT5/MEP50 assessed as association rate constant by SPR analysis. It counts as protein-complex assay.
Turning to `COc1ccc([C@@]2(C34CC5CC(CC(C5)C3)C4)N=C(N)N(C)C2=O)cc1`, the Ka came to 1000 M⁻¹ s⁻¹.
